Results reported in ChEMBL document CHEMBL4732149, “Evaluation of the cellular protection by novel spiropyrazole compounds in dopaminergic cell death” (Eur J Med Chem, 2021).

Columns and labels:
[1] = test system: SH-SY5Y; assay: Neuroprotective activity against […]-induced cell death in human SH-SY5Y cells assessed as increase in cell viability preincubated for 1 hr followed by […] stimulation and measured after 24 hrs by MTT assay; assay type: functional, cell-based; details: dose 10-50 µM, time 25.0 hrs
[2] = test system: SH-SY5Y; assay: Cytotoxicity against human SH-SY5Y cells assessed as reduction in cell viability at 10 to 50 uM measured after 24 hrs by MTT assay; assay type: cell-based; details: dose 10-50 µM
[3] = test system: SH-SY5Y; assay: Neuroprotective activity against […]-induced cell death in human SH-SY5Y cells at 10 to 50 uM preincubated for 1 hr followed by […] stimulation and measured after 24 hrs by MTT assay relative to control; assay type: functional; details: dose 10-50 µM, time 25 hrs
[4] = Cytotoxicity against human SH-SY5Y cells assessed as cell viability at 50 uM measured after 24 hrs by MTT assay relative to control; assay type: cell-based; details: read-out: Activity
[5] = test system: SH-SY5Y; assay: Neuroprotective activity against […]-induced cell death in human SH-SY5Y cells assessed as cell viability at 1 uM preincubated for 1 hr followed by […] stimulation and measured after 24 hrs by MTT assay relative to control; assay type: functional; details: time 25 hrs, read-out: Activity

| SMILES | Activity [1] | Activity [2] | Activity [3] [%] | viability at 24 h, 50 µM [4] [%] | viability at 1 µM [5] [%] |
| --- | --- | --- | --- | --- | --- |
| NC1=NN(c2ccccc2)C(=O)C12[C@@H](c1cccc(Br)c1)c1c([nH]n(-c3ccccc3)c1=O)N[C@H]2c1cccc(Br)c1 (stereo in doubt; 3c-1) [listing 1 of 2 here] | Dose-dependent effect | – | – | – | – |
| Cc1ccc([C@H]2c3c([nH]n(-c4ccccc4)c3=O)N[C@@H](c3ccc(C)cc3)C23C(=O)N(c2ccccc2)N=C3N)cc1 (stereo partly drawn) | Dose-dependent effect | Non-Toxic | 28.66 | – | – |
| NC1=NN(c2ccccc2)C(=O)C12[C@@H](c1ccccc1)c1c([nH]n(-c3ccccc3)c1=O)N[C@H]2c1ccccc1 (stereo partly drawn) | Dose-dependent effect | Non-Toxic | 27.03 | – | – |
| NC1=NN(c2ccccc2)C(=O)C12[C@@H](c1cccs1)c1c([nH]n(-c3ccccc3)c1=O)N[C@H]2c1cccs1 (stereo partly drawn) | Dose-dependent effect | Non-Toxic | 18.43 | – | – |
| NC1=NN(c2ccccc2)C(=O)C12[C@@H](c1cccc(Br)c1)c1c([nH]n(-c3ccccc3)c1=O)N[C@H]2c1cccc(Br)c1 (stereo in doubt; 3c-1) [listing 2 of 2 here] | – | Non-Toxic | 30.11 | – | – |
| NC1=NN(c2ccccc2)C(=O)C12[C@@H](c1cccc([N+](=O)[O-])c1)c1c([nH]n(-c3ccccc3)c1=O)N[C@H]2c1cccc([N+](=O)[O-])c1 (stereo partly drawn) | Dose-dependent effect | Non-Toxic | 22.81 | – | – |
| NC1=NN(c2ccccc2)C(=O)C12[C@@H](c1ccccc1[N+](=O)[O-])c1c([nH]n(-c3ccccc3)c1=O)N[C@H]2c1ccccc1[N+](=O)[O-] (stereo partly drawn) | Dose-dependent effect | Non-Toxic | 20.21 | – | – |
| NC1=NN(c2ccccc2)C(=O)C12[C@@H](c1cccc(Br)c1)c1c([nH]n(-c3ccccc3)c1=O)N[C@H]2c1cccc(Br)c1 (stereo in doubt; 3c-2) [listing 1 of 2 here] | Dose-dependent effect | – | – | – | – |
| NC1=NN(c2ccccc2)C(=O)C12[C@@H](c1ccc(Cl)cc1)c1c([nH]n(-c3ccccc3)c1=O)N[C@H]2c1ccc(Cl)cc1 (stereo partly drawn) | Dose-dependent effect | Non-Toxic | 20.05 | 84.9 | – |
| NC1=NN(c2ccccc2)C(=O)C12[C@@H](c1cccc(Br)c1)c1c([nH]n(-c3ccccc3)c1=O)N[C@H]2c1cccc(Br)c1 (stereo in doubt; 3c-2) [listing 2 of 2 here] | – | – | 33.52 | – | – |
| COc1ccc([C@H]2c3c([nH]n(-c4ccccc4)c3=O)N[C@@H](c3ccc(OC)cc3)C23C(=O)N(c2ccccc2)N=C3N)cc1 (stereo partly drawn) | Dose-dependent effect | Non-Toxic | 26.54 | – | – |
| COc1cc(/C=C/C(=O)CC(=O)/C=C/c2ccc(O)c(OC)c2)ccc1O [CURCUMIN] | – | – | – | – | 80.7 |
